Reference: patent publication US20110105389A1 (priority 2009, published 2011)
Read-outs that look alike come from different tables or passages of the source.

Legend:
[1] = Plasma protein binding (equilibrium dialysis), Method B5; assay type: in vitro ADME; details: 60 min at 37° C., typically 10 μM; for fraction unbound at 60 min, 10 μM: human plasma
Excerpt: B5. Plasma Protein Binding
The pharmacokinetic and pharmacodynamic properties of drugs are largely a function of the reversible binding of drugs to plasma or serum proteins such as albumin and α1-acid glycoprotein. In general, only unbound drug is available for diffusion or transport across cell membranes, and for interaction at the pharmacological target. On the other hand, drugs with low plasma protein binding generally have large volumes of distribution and rapid clearance since only unbound drug is available for glomerular filtration and, in some cases, hepatic clearance. Thus, the extent of plasma protein binding can influence efficacy, distribution and elimination. The ideal range for plasma protein binding is in the range of 87-98% for most drug products.
Protein binding studies were performed using human plasma. Briefly, 96-well microplates were used to incubate various concentrations of the test article for 60 min at 37° C. A concentration of 10 μM was a typical selection to be employed in this study. Bound and unbound fractions are separated by equilibrium dialysis, where the concentration remaining in the unbound fraction is quantified by LC-MS or LC-MS-MS analysis. […].

[2] = Caco-2 permeability, Method B7; assay type: in vitro ADME, human; details: human; for Papp A→B at 60 min, 10 μM / Papp B→A at 60 min, 10 μM: Caco-2, 10 μM, without P-gp inhibitor; for efflux ratio at 60 min, 10 μM: Caco-2, without P-gp inhibitor, read-out: Efflux ratio Papp B2A/Papp A2B
Excerpt: (§1) B7. Determination of Caco-2 Permeability
(§2) The Caco-2 cell line, derived from a human colorectal carcinoma, has become an established in vitro model for the prediction of drug absorption across the human intestine. (Sun, D.; Yu, L. X.; Hussain, M. A.; Wall, D. A.; Smith, R. L.; Amidon, G. L. Curr. Opin. Drug Discov. Devel. 2004, 7, 75-85; Bergstrom, C. A. Basic Clin. Pharmacol. Toxicol. 2005, 96, 156-61; Balimane, P. V.; Han, Y. H.; Chong, S. AAPS J. 2006, 8, E1-13; Shah, P.; Jogani, V.; Bagchi, T.; Misra, A. Biotechnol. Prog. 2006, 22, 186-198.) When cultured on semi-permeable membranes, Caco-2 cells differentiate into a highly functionalized epithelial barrier with remarkable morphological and biochemical similarity to the small intestinal columnar epithelium. Fully differentiated cell monolayers can be used to assess the membrane transport properties of novel compounds.
(§3) Assays to determine the permeability of compounds of the invention utilizing Caco-2 cells are commercially available, for example NoAb BioDiscoveries (Mississaugua, ON, Canada) and Absorption Systems (Exton, Pa., USA).
(§4) Permeability across the Caco-2 cell layer was determined by growing the cells on a membrane placed between two (donor and acceptor) chambers. Drug candidates are typically added to the apical (A) side of the cell layer and their appearance in the basolateral (B) side is measured over incubation time. Permeability in this direction represents intestinal absorption. Permeability may also be determined from the basolateral to the apical side of the Caco-2 cell. […]
(§5) Permeability (10 μM) for compounds of the invention in the apical to basolateral and basolateral to apical direction were tested in duplicate. Samples will be collected from the donor and acceptor chambers at the beginning (0 min) and following 60 min of incubation at 37° C. and stored frozen at −70° C. until bioanalysis. Samples for each test compound generated from the Caco-2 permeability assay were further analyzed by LC-MS-MS. The permeability of [^3H]-mannitol and [^3H]-propranolol were determined in parallel as controls.
(§6) The permeability coefficient (Papp) of each compound and radiolabeled standard was determined using the following equation: […]
(§7) where dQ/dT represents the permeability rate, Ci denotes the initial concentration in the donor compartment, and A represents the surface area of the filter. Ci is determined from the mean concentration of duplicate samples taken prior to addition to the donor compartment. Permeability rates were calculated by plotting the cumulative amount of compound measured in the acceptor compartment over time and determining the slope of the line by linear regression analysis. The duplicate and mean apical to basolateral and basolateral to apical Papp's were reported for each compound and standard. […]

CYP3A4 = CYP3A4 (Homo sapiens, UniProt P08684); assay: Cytochrome P450 inhibition, Method B6 (two substrates); details: read-out: IC50 CYP 3A4
hERG channel = target: T1, hERG channel (Homo sapiens, UniProt Q12809); assay: hERG channel inhibition (whole cell IKr currents, HEK293), Method B16; assay type: cell-based; details: in comparison to vehicle (0.1% DMSO) controls, up to 100 μM
T1 construct: expressed in transfected cells; host or cells: HEK293
Excerpt: B16. hERG Channel Inhibition
Direct interactions of compounds with the hERG channel account for the majority of known cases of cardiotoxicity. […]

Caco-2 cells = assay: Caco-2 permeability, Method B7; assay type: in vitro ADME, human; details: for A to B Mean Papp / B to A Mean Papp: Caco-2, 10 μM, without P-gp inhibitor; for Efflux ratio Papp B2A/Papp A2B: Caco-2, without P-gp inhibitor
Excerpt: as §1, §2, §3, §4, §5, §6, §7

CYP2D6 = CYP2D6 (Homo sapiens, UniProt P10635); assay: Cytochrome P450 inhibition, Method B6; details: read-out: IC50 CYP 2D6; Table 4a; dextromethorphan used as substrate
[3] = Table 4b, midazolam used as substrate
[4] = Table 4a, nifedipine used as substrate

CYP3A4, sequence (P08684 whole entry): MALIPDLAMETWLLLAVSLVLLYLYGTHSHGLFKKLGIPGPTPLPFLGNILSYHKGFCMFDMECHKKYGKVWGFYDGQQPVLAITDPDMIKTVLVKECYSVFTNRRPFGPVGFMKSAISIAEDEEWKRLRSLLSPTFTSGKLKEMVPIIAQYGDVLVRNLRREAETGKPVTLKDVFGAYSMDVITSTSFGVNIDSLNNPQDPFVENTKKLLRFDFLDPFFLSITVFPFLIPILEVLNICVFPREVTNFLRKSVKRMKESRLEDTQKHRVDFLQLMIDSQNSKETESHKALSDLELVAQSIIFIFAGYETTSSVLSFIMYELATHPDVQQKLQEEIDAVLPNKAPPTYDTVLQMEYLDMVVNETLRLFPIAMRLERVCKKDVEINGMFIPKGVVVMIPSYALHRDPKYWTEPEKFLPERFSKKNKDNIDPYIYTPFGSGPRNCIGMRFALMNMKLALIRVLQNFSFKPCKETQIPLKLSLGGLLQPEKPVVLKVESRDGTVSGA
T1 sequence (Q12809 whole entry): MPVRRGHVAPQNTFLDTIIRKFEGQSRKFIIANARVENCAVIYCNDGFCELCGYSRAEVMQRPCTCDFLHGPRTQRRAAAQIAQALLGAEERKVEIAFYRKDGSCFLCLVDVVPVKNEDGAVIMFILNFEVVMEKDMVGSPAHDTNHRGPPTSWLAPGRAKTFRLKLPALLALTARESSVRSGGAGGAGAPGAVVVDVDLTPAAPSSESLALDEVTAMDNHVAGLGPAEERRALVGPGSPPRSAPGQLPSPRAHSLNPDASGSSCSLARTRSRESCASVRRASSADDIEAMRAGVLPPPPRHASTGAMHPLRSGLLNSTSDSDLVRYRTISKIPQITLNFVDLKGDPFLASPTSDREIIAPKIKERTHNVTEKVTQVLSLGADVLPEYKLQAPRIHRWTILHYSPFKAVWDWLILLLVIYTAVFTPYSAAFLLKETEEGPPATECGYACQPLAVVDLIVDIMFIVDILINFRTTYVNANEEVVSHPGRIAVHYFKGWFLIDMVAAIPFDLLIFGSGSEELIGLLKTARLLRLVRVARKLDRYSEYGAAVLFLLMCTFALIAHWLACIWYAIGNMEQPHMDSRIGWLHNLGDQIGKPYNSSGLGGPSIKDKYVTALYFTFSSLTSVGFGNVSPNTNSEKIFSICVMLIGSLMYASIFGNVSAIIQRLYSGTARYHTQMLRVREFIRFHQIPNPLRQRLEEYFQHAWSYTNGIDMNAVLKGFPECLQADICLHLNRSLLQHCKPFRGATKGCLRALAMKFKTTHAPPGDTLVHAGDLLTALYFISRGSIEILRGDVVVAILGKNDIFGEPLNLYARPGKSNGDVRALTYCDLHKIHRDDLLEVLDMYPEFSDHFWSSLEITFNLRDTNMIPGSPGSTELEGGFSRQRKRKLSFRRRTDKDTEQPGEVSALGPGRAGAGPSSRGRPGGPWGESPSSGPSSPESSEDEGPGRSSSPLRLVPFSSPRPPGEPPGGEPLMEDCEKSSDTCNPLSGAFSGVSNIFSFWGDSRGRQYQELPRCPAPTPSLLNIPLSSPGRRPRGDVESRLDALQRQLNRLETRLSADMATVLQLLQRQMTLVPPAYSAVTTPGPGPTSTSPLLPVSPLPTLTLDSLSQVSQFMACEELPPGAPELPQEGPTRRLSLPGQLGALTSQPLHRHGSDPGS
CYP2D6, sequence (P10635 whole entry): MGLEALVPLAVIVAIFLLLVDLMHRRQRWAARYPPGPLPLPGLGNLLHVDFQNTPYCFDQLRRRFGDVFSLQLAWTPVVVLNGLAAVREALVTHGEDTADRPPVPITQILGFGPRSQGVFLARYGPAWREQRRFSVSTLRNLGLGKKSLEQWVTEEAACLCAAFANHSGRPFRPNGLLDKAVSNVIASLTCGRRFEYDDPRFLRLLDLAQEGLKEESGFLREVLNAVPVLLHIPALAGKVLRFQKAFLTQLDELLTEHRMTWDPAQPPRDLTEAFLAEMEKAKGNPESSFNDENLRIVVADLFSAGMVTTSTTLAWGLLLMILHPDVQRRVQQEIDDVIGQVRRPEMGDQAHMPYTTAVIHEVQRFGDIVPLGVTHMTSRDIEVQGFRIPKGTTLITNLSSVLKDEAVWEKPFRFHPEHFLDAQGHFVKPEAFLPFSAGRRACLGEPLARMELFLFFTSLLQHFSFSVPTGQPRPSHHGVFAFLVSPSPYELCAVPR

Row | Structure (SMILES) | fraction unbound at 60 min, 10 μM [1] | Papp A→B at 60 min, 10 μM [2] [×10⁻⁶ cm/s] | Papp B→A at 60 min, 10 μM [2] [×10⁻⁶ cm/s] | efflux ratio at 60 min, 10 μM [2] | Binding (%), Human Plasma Protein Binding [1] [%] | other results
1 | Cc1cccc(C[C@H]2NC(=O)[C@H](C(C)O)N(C)C(=O)[C@H](C(C)C)NCCOc3ccccc3C[C@H](O)CNC2=O)c1 (some centres unmarked) [Compound 1453] | 0.243 |  |  |  |  | 
2 | CC(C)[C@@H]1NCCOc2ccccc2C[C@H](O)[C@@H](C)NC(=O)[C@@H](Cc2cccc(F)c2)NC(=O)[C@H](C(C)O)N(C)C1=O (some centres unmarked) [Compound 1503] | 0.221 | 0.11 | 12 | 109 |  | 
3 | CC[C@@H]1CCc2ccc(F)cc2OCCN[C@@H](C(C)C)C(=O)N(C)[C@@H](C(C)O)C(=O)N[C@H](Cc2c[nH]c3ccccc23)C(=O)N1 (some centres unmarked) [Compound 1505] | 0.036 | 0.091 | 26.7 | 299 |  | 
4 | CC(C)[C@@H]1NCCOc2ccccc2C#C[C@@H](C)NC(=O)[C@@H](Cc2ccccc2)NC(=O)[C@H](C(C)O)N(C)C1=O (some centres unmarked) [Compound 1688] | 0.091 | 0.131 | 41.8 | 318 |  | 
5 | CC(C)C1NCCOc2ccccc2C#CCNC(=O)C(Cc2c[nH]c3ccccc23)NC(=O)C(C(C)O)N(C)C1=O (centres unmarked) [Compound 1692] |  |  |  |  | 98.2 | 
6 | CC(C)C1NCCOc2cc(F)ccc2C#CCNC(=O)C(Cc2c[nH]c3ccccc23)NC(=O)C(C(C)O)N(C)C1=O (centres unmarked) [Compound 1693] |  |  |  |  |  | IC50 (CYP3A4; [3]): 2.2 µM
7 | CCC1CCc2ccc(F)cc2OCCNC(C2(C)CC2)C(=O)N(C)C(C(C)O)C(=O)NC(Cc2c[nH]c3ccccc23)C(=O)N1 (centres unmarked) [Compound 1703] |  |  |  |  | 99.5 | 
8 | CC[C@@H]1C#Cc2ccc(F)cc2O[C@H](C)CN[C@@H](C2(C)CC2)C(=O)N(C)[C@@H](C(C)O)C(=O)N[C@H](Cc2c[nH]c3ccccc23)C(=O)N1 (some centres unmarked) [Compound 1707] |  |  |  |  | 99.6 | 
9 | CC(C)[C@@H]1NCCOc2ccccc2C#CCNC(=O)[C@@H](Cc2ccccc2)NC(=O)[C@H](C(C)O)N(C)C1=O (some centres unmarked) [Compound 1712] | 0.024 |  |  |  |  | effect on hERG channel function (hERG channel): no significant effect
10 | CC(O)[C@H]1C(=O)N[C@H](Cc2c[nH]c3ccccc23)C(=O)N[C@H](C)C#Cc2ccc(F)cc2O[C@H](C)CN[C@@H](C2(C)CC2)C(=O)N1C (some centres unmarked) [Compound 1720] |  |  |  |  |  | IC50 (CYP3A4; [3]): 1.6 µM
11 | CC[C@@H]1C#Cc2c(F)cccc2OCCN[C@@H](C(C)C)C(=O)N(C)[C@@H](C(C)O)C(=O)N[C@H](Cc2c[nH]c3ccccc23)C(=O)N1 (some centres unmarked) [Compound 1726] |  |  |  |  | 99.8 | 
12 | CC[C@@H]1CCc2ccc(F)cc2OCCN[C@@H](C(C)C)C(=O)N(C)[C@@H](C(C)O)C(=O)N[C@H](Cc2ccc(O)cc2)C(=O)N1 (some centres unmarked) [Compound 1751] |  |  |  |  | 97.4 | 
13 | CC[C@@H]1C#Cc2ccccc2OCCN[C@@H](C(C)C)C(=O)N(C)[C@@H](C(C)O)C(=O)N[C@H](Cc2c[nH]c3ccccc23)C(=O)N1 (some centres unmarked) [Compound 1754] |  |  |  |  | 99.4 | 
14 | CC[C@@H]1C#Cc2ccc(F)cc2OCCN[C@@H](C(C)C)C(=O)N(C)[C@@H](C(C)O)C(=O)N[C@H](Cc2c[nH]c3ccccc23)C(=O)N1 (some centres unmarked) [Compound 1755] |  |  |  |  | 99.3 | 
15 | CC(C)[C@@H]1NCC2CCc3cccc(c3O2)CCCNC(=O)[C@@H](Cc2ccccc2)NC(=O)[C@H](C(C)O)N(C)C1=O (some centres unmarked) [Compound 1777] |  |  |  |  | 95.8 | A to B Mean Papp (Caco-2 cells): 0.274 ×10⁻⁶ cm/s; B to A Mean Papp (Caco-2 cells): 53.5 ×10⁻⁶ cm/s; Efflux ratio Papp B2A/Papp A2B (Caco-2 cells): 195; IC50 (CYP3A4; [4]): 6 µM; IC50 (CYP2D6): 11.8 µM
16 | CC(O)[C@H]1C(=O)N[C@H](Cc2ccccc2)C(=O)NCCCc2cccc3c2OC(CC3)CN[C@@H](C2CC2)C(=O)N1C (some centres unmarked) [Compound 1778] | 0.076 | 0.193 | 32.7 | 169 |  | 
17 | CC[C@@H]1NCC2CCc3cccc(c3O2)CCCNC(=O)[C@@H](Cc2ccccc2)NC(=O)[C@H](C(C)O)N(C)C1=O (some centres unmarked) [Compound 1780] | 0.061 | 0.099 | 29.5 | 297 |  | 
18 | CC(C)[C@@H]1NCCOc2ccccc2C2CCC(C2)NC(=O)[C@@H](Cc2c[nH]c3ccccc23)NC(=O)[C@H](C(C)O)N(C)C1=O (some centres unmarked) [Compound 1843] |  |  |  |  | 92.1 | A to B Mean Papp (Caco-2 cells): 0.142 ×10⁻⁶ cm/s; B to A Mean Papp (Caco-2 cells): 13.4 ×10⁻⁶ cm/s; Efflux ratio Papp B2A/Papp A2B (Caco-2 cells): 95; IC50 (CYP3A4; [4]): 6.5 µM; IC50 (CYP2D6): 7.7 µM
19 | CC(C)[C@@H]1NCCOc2ccccc2C2CCC(C2)NC(=O)[C@@H](Cc2ccccc2)NC(=O)[C@H](C(C)O)N(C)C1=O (some centres unmarked) [Compound 1848] | 0.207 | 0.266 | 64.2 | 241 |  | effect on hERG channel function (hERG channel): no significant effect
20 | CC(O)[C@H]1C(=O)N[C@H](Cc2ccccc2)C(=O)NCC#Cc2c(F)cccc2OCCN[C@@H](C2(C)CC2)C(=O)N1C (some centres unmarked) [Compound 1876] | 0.05 | 0.097 | 28 | 288 |  | 
21 | CC(O)[C@H]1C(=O)N[C@H](Cc2ccccc2)C(=O)NCC#Cc2ccccc2OCCN[C@@H](C2(C)CC2)C(=O)N1C (some centres unmarked) [Compound 1878] | 0.127 | 0.144 | 21.7 | 151 |  | 
22 | CC(C)[C@@H]1NCCOc2ccccc2C2CCC(C2)NC(=O)[C@@H](Cc2ccc(F)cc2)NC(=O)[C@H](C(C)O)N(C)C1=O (some centres unmarked) [Compound 1903] | 0.159 | 0.291 | 58.9 | 203 |  | 
23 | CC(O)[C@H]1C(=O)N[C@H](Cc2ccccc2)C(=O)NCC#Cc2ccc(F)cc2OCCN[C@@H](C2(C)CC2)C(=O)N1C (some centres unmarked) [Compound 1918] |  | 0.112 | 42.6 | 380 |  | 
24 | CC(C)[C@@H]1NCCOc2cccc(F)c2C#CCNC(=O)[C@@H](Cc2ccccc2)NC(=O)[C@H](C(C)O)N(C)C1=O (some centres unmarked) [Compound 1929] |  | 0.171 | 36.9 | 216 |  | effect on hERG channel function (hERG channel): no significant effect
